For this series, the target named is T1, OAT1 (Solute carrier family 22 member 6) (Homo sapiens, UniProt Q4U2R8).
T1 sequence (Q4U2R8 whole entry): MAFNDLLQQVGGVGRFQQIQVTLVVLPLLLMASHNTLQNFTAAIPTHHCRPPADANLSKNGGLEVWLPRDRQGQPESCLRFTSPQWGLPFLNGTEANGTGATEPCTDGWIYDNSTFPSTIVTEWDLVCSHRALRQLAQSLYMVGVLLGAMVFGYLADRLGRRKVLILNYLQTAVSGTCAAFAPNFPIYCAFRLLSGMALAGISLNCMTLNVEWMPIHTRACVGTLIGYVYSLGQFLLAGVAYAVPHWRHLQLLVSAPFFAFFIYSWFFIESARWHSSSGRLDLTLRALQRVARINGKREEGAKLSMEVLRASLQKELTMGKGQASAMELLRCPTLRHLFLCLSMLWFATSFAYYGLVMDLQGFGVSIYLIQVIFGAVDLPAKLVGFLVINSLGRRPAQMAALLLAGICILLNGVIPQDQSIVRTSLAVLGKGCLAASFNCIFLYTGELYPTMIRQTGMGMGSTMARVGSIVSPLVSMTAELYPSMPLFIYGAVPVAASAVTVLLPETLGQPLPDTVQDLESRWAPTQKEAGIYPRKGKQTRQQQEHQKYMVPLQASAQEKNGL
As to the kind of experiment: TP_TRANSPORTER: inhibition of Urate uptake (Urate: 300 uM, DIDS: 2000 uM) in OAT1-expressing S2 cells. On the set-up: scale not given: the % may be the effect or the level left. The note with it: S2 cells that express OAT1, probe urate (300 uM); read-out: Activity. It counts as functional, cell-based.

As to `O=S(=O)(O)c1cc(N=C=S)ccc1/C=C/c1ccc(NC=S)cc1S(=O)(=O)O`, the activity at 2000 µM worked out at 64.2%.

Source of the values: ChEMBL document CHEMBL2073941, “TP-search Transporter Database” (Gastroenterology, 1994).
